Experiment [1] can be described thus: Inhibitory concentration against [3H]DPCPX binding to Adenosine A1 receptor from DDT1 MF2 cells.
Experiment [2] in a line: Equilibrium dissociation constant for [3H]DPCPX binding to Adenosine A1 receptor from DDT1 MF2 cell membranes.
Test in experiment [3]: as above
The source holds these as a separate data set.

Among the data in BindingDB's records for doi:10.1016/s0960-894x(02)00639-x (Monash University (Parkville Campus), 2002) are IC50 and Kd values, retold here.

A word on the IC50: it is the midpoint of a concentration-inhibition curve. For orientation: Kd means a measure of binding affinity in units of concentration. A lower Kd goes with a tighter complex. With `CCCn1c(=O)c2[nH]c(C3CC4CCC3C4)nc2n(CCCCC(=O)c2ccc(S(=O)(=O)F)cc2)c1=O` (stereo not given) [4-[5-(8-Bicyclo[2.2.1]hept-2-yl-2,6-dioxo-1-propyl-1,2,6,7-tetrahydro-purin-3-yl)-pentanoyl]-benzenesulfonyl fluoride], the half-inhibitory concentration (IC50) in experiment [1] stood at 3.9 nM. Further, the Kd in experiment [2] was 0.53 nM.
Take `CCCn1c(=O)c2[nH]c(C3CCCCC3)nc2n(CCCCC(=O)c2ccc(S(=O)(=O)F)cc2)c1=O` [4-[5-(8-Cyclohexyl-2,6-dioxo-1-propyl-1,2,6,7-tetrahydro-purin-3-yl)-pentanoyl]-benzenesulfonyl fluoride]: the IC50 in experiment [1] worked out at 17 nM.
On to `CCCn1c(=O)c2[nH]c(C3CCCC3)nc2n(CCCCC(=O)c2ccc(S(=O)(=O)F)cc2)c1=O` [4-[5-(8-Cyclopentyl-2,6-dioxo-1-propyl-1,2,6,7-tetrahydro-purin-3-yl)-pentanoyl]-benzenesulfonyl fluoride], for which the Kd in experiment [2] turned out to be 0.53 nM. In addition, in experiment [3], the IC50 was 8.7 nM.
